These results are taken from patent US20110173718A1, “HERBICIDE TOLERANT PLANTS” (SYNGENTA CROP PROTECTION, INC., priority 2008, published 2011).

“And” between values parts separate entries of the source, which are not always exact repeats. Equal values may be shown once.

Holding throughout (format): in vivo
Assay [1] relates to wild-type (WT) Samsun tobacco. Put plainly: Glasshouse spray test, wild-type tobacco. The conditions noted are these: for % damage observed 16 DAT: w/t tobacco; for score on a scale from 0 to 10 (0 substantially bleached/burnt, meristem dead/white; 10 entire plant green and undamaged): 500 g/ha, 11 DAT; for blch (% bleaching at the meristem relative to control plants) / ht (% height reduction relative to control plants): 100 g; for % damage at 7 DAT: WT Samsun, individual plants; for blch: % bleaching at the meristem relative to control plants / ht: % height reduction relative to control plants: WT tobacco. In a few lines: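 Wild-type Samsun tobacco grown from seed was planted in 3 inch pots, grown on under glasshouse conditions (about 24-27° C. day, 18-21° C. night, ~14 h photoperiod, ~65% humidity) and spray-treated alongside transgenic lines. Test chemicals were formulated in water with 0.2% X77 surfactant and applied by track sprayer at 200 l/ha. Height reduction, bleaching and damage were scored against unsprayed control plants of like size.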

Assay [2] has as its system tobacco plants expressing Pseudomonas fluorescens HPPD. Nature of the assay: Glasshouse spray test, Pseudomonas HPPD transgenic tobacco. To be noted: for % damage observed 16 DAT: Pseudomonas HPPD T1; for % damage at 7 DAT: C2 line (Pseudomonas HPPD, T2), individual plants. The source says: Tobacco plants expressing the wild-type HPPD gene of Pseudomonas fluorescens strain 87-79 under operable control of the double enhanced 35S CMV promoter region, Nos3′ terminator and TMV translational enhancer were provided as detailed in Example 4 of WO0246387.
Seed of wild-type tobacco plants, C2 tobacco plants and of the T1 progeny of a further Arabidopsis-HST expressing tobacco line, D2 were planted out in 3 inch pots, grown on, sprayed with compounds 1.1, 2.30 and 3.6 at the rates shown in table 5. Percent damage scores were assessed at 7 DAT. Aside from the presumptive non-transgenic segregants the D2 line containing the Arabidopis HST expression construct offered the highest level of tolerance to the two HST herbicides with the Psuedomonas HPPD, C2 line, offering only marginal tolerance under the conditions of this test.
Transgenic lines of tobacco, soyabean and corn etc. can be engineered to express various heterologous HPPDs derived from, for example Avena (SEQ ID #26), Wheat (SEQ ID #27), Pseudomonas fluorescens (SEQ ID # 25) and Shewanella colwelliana (SEQ ID #28) as, for example, described in WO 02/46387.
Single copy events amongst the T1 plant lines are identified by their 3:1 segregation ratio (wrt kanamycin and or herbicide) and by quantitative RT-PCR. Seed from the thus selected T1 tobacco (var Samsun) lines are sown in 3 inch diameter pots containing 50% peat, 50% John Innes soil no 3. After growth to the 3 leaf stage, plants are sprayed, as described above, in order to test for herbicide tolerance relative to like-treated non-transgenic tobacco plants.
Control tobacco plants and transgenic T1 plants expressing either the Pseudomonas or the wheat HPPD gene are sprayed at 37, 111, 333 and 1000 g/ha rates of HST inhibitors and, for example, compound 2.3.
Plants are assessed and scored for % damage at 16 DAT.

For assay [3], the system named is tobacco (var Samsun) plantlets on liquid culture medium. Put plainly: HST + HPPD herbicide effects on tobacco seedlings on liquid culture medium. The conditions noted are these: for % Injury, plus Mesotrione (0.0005 ppm) / % Injury, plus Mesotrione (0.001 ppm) / % Injury (bleaching), compound 2.13 only: 20 DAT; for % bleaching, +mesotrione 0.001 ppm / % bleaching, HST herbicide alone: liquid culture medium, 14 DAT. As to the method:
In an alternative herbicide test procedure tobacco (var Samsun) plantlets germinated aseptically in agar made up in 1/3 strength Murashige and Skoog salts medium are transferred after 4 d to float on top of 2.9 ml of sterile liquid culture medium (half strength Murashige and Skoog medium containing 30 mM sucrose) in wells of 12 well plates. Test compounds are added at various doses and bleaching damage is assessed after 14-20 DAT. The plantlets are kept covered under clear perspex and grown at 18° C. (night) and 24° C. (day) under a 1611 day (˜500-900 umol/m^2), 8 h darkness regime Plantlets continue to grow and produce new tissue over the 14-20 DAT period but are bleached and grow less in the presence of controlling concentrations of herbicide.

[4] abbreviates: range of rates of compound 2.13 plus the higher dose of mesotrione.
Where [5] appears, read: 7 DAT, WT, Arabidopsis HST section.
Setting [6] is: 17 DAT, WT, Chlamydomonas HST section.
The mark [7] stands for this setting: spray with 500 g of compound 2.30, 7 DAT.
[8] abbreviates: spray with 500 g of compound 2.30, 17 DAT.

`O=c1c(-c2c(F)ccc(F)c2Cl)c(O)c2nccnc2n1CC(F)F` [Compound 2.3]: the “% damage observed 16 DAT” value in assay [1] (37 g/ha) came to 17%; in assay [1] (111 g/ha), 40%; in assay [1] (333 g/ha), 47%; in assay [1] (1000 g/ha) it was 57%; in assay [2] (37 g/ha), 0%; in assay [2] (111 g/ha), 3%. Also, the entries for the “% damage observed 16 DAT” value in assay [2] (333 g/ha) and in assay [2] (1000 g/ha) were 6% and 10%, respectively. In addition, the “score on a scale from 0 to 10 (0 substantially bleached/burnt, meristem dead/white; 10 entire plant green and undamaged)” value in assay [1] (W/T_SD) and in assay [1] (W/T_TC) was 0 in each case.

Consider `O=c1c(-c2c(F)ccc(F)c2Cl)c(O)c2cccnc2n1CC(F)F` [Compound 2.13], for which the “% Injury, plus Mesotrione (0.0005 ppm)” value in assay [3] (compound 2.13 0.01 ppm + mesotrione 0.0005 ppm, liquid culture) is 0%; in assay [3] (compound 2.13 0.03 ppm + mesotrione 0.0005 ppm, liquid culture) it was 0%; in assay [3] (compound 2.13 0.09 ppm + mesotrione 0.0005 ppm, liquid culture) it was 0%; in assay [3] (compound 2.13 0.28 ppm + mesotrione 0.0005 ppm, liquid culture) it was 0%; in assay [3] (compound 2.13 0.85 ppm + mesotrione 0.0005 ppm, liquid culture), 40%; in assay [3] (compound 2.13 2.56 ppm + mesotrione 0.0005 ppm, liquid culture), 90%. In addition, the “% Injury, plus Mesotrione (0.0005 ppm)” value in assay [3] (compound 2.13 7.67 ppm + mesotrione 0.0005 ppm, liquid culture) was 100%; in assay [3] (compound 2.13 23 ppm + mesotrione 0.0005 ppm, liquid culture) it was 100%. Moreover, the “% Injury, plus Mesotrione (0.001 ppm)” value in assay [3] (compound 2.13 0.01 ppm + mesotrione 0.001 ppm, liquid culture) was 40%; in assay [3] (compound 2.13 0.03 ppm + mesotrione 0.001 ppm, liquid culture), 60%; in assay [3] (compound 2.13 0.09 ppm + mesotrione 0.001 ppm, liquid culture), 80%; in assay [3] (compound 2.13 0.28 ppm + mesotrione 0.001 ppm, liquid culture), 80%; in assay [3] (compound 2.13 0.85 ppm + mesotrione 0.001 ppm, liquid culture), 90%; in assay [3] (compound 2.13 2.56 ppm + mesotrione 0.001 ppm, liquid culture), 90%. Besides, the “% Injury, plus Mesotrione (0.001 ppm)” value in assay [3] (compound 2.13 7.67 ppm + mesotrione 0.001 ppm, liquid culture) was determined as 100%; in assay [3] (compound 2.13 23 ppm + mesotrione 0.001 ppm, liquid culture), 100%. Moreover, the “% Injury (bleaching), compound 2.13 only” value in assay [3] (compound 2.13 0.01 ppm, liquid culture) is listed as 0%; in assay [3] (compound 2.13 0.03 ppm, liquid culture), 0%; in assay [3] (compound 2.13 0.09 ppm, liquid culture) it was 0%; in assay [3] (compound 2.13 0.28 ppm, liquid culture), 0%; in assay [3] (compound 2.13 0.85 ppm, liquid culture), 0%; in assay [3] (compound 2.13 2.56 ppm, liquid culture) it was 0%. Moreover, the “% Injury (bleaching), compound 2.13 only” value in assay [3] (compound 2.13 7.67 ppm, liquid culture) is given as 50%; in assay [3] (compound 2.13 23 ppm, liquid culture) it was 100%. Besides, the “bleaching expected (Colby)” value in assay [3] (setting [4]) came to 20%. Further, the bleaching observed in assay [3] (setting [4]) was 80% and 90%.

Regarding `O=c1c(-c2c(F)ccc(Br)c2Cl)c(O)c2cccnc2n1CC(F)F` [Compound 2.15], the “% bleaching, +mesotrione 0.001 ppm” value in assay [3] (0.19 ppm + mesotrione 0.001 ppm) is on record as 0%; in assay [3] (0.58 ppm + mesotrione 0.001 ppm), 5%; in assay [3] (1.7 ppm + mesotrione 0.001 ppm) it was 80%; in assay [3] (5.2 ppm + mesotrione 0.001 ppm) it was 70%; in assay [3] (16 ppm + mesotrione 0.001 ppm), 100%; in assay [3] (47 ppm + mesotrione 0.001 ppm), 100%. The “% bleaching, HST herbicide alone” value in assay [3] (0.19 ppm) worked out at 5%; in assay [3] (0.58 ppm) it was 0%; in assay [3] (1.7 ppm), 5%; in assay [3] (5.2 ppm), 40%; in assay [3] (16 ppm), 100%; in assay [3] (47 ppm), 100%. In assay [3] (liquid culture, repeat experiments), the “effect of low amounts of mesotrione on the injury down the dose response” value was “clear synergistic effects”.

Turning to `CC(C)C(=O)Oc1c(-c2c(F)ccc(Br)c2Cl)c(=O)n(CC(F)F)c2nccnc12` [Compound 2.30], the “blch (% bleaching at the meristem relative to control plants)” value was 85% and 70% and 75% and 80% in assay [1] (setting [5]); 85% and 70% and 75% and 80% in assay [1] (7 DAT, WT, wheat HPPD section); 85% and 70% and 75% and 80% in assay [1] (setting [6]). For the same compound, the “ht (% height reduction relative to control plants)” value in assay [1] (setting [5]) is 80% and 85% and 75%; in assay [1] (7 DAT, WT, wheat HPPD section), 80% and 85% and 75%; in assay [1] (setting [6]), 80% and 85% and 75%; in assay [1] (21 DAT, WT, wheat HPPD section), 95% and 90% and 75% and 80%; in assay [1] (26 DAT, WT, Arabidopsis HST section), 95% and 90% and 75% and 80%; in assay [1] (26 DAT, WT, Chlamydomonas HST section) it was 95% and 90% and 75% and 80%. Besides, in assay [1] (150 g/ha, WT, reps), the “percent damage at 6 DAT” value was found to be 70%. Further, the “% damage at 7 DAT” value in assay [1] (150 gai/ha) is 75% and 80% and 85%; in assay [1] (300 gai/ha), 75% and 70% and 80%; in assay [1] (450 gai/ha), 70% (2×) and 75%; in assay [2] (150 gai/ha), 90% and 70% and 80% (2×); in assay [2] (300 gai/ha), 85%; in assay [2] (450 gai/ha) it was 65% and 70% and 85% (2×). Moreover, in assay [1] (Compound 2.30, 150 g/ha, 14 DAT, WT control, reps), the herbicide % damage was 60% and 70% and 75%. The “blch: % bleaching at the meristem relative to control plants” value is 70% and 75% and 80% in assay [1] (setting [7]); 80% and 70% and 75% in assay [1] (setting [8]). The “ht: % height reduction relative to control plants” value in assay [1] (setting [7]) was 85% and 90%; in assay [1] (setting [8]), 90% and 85%; in assay [1] (spray with 500 g of compound 2.30, 26 DAT), 70% and 85% and 100% and 90% and 80%.
